Source: patent publication US12636371B2, “Chemically coupled transporter for low-hydrophobicity bioactive drugs into the central nervous system” (Skybio LLC, priority 2021, dated 2026)
In brackets after ≈: the same amount, converted by molar mass. Where two headings read alike, the source gives them in different places.

Experiments:
[1] = test system: E. coli DH5α; experiment: Antibiotic activity by disc diffusion assay (MIC); type: cell-based; details: for MIC: Escherichia coli; for RATE MIC Compound/Doxycycline: ratio of MIC to doxycycline MIC
Protocol: In order to examine the antibiotic activity of the compounds synthesized in Example 1, an assay was performed using E. coli DH5α (Gram(−)), as a sensitive, indicator strain.
The antibacterial activities of test compounds were evaluated using the disc diffusion method (Kavanagh, F. Dilution methods of antibiotic assays in Analytical Microbiology. 1963; Pomares M F, Vincent P A, Farías R N, Salomón R A. Protective action of ppGpp in microcin J25-sensitive strains. J Bacteriol. 2008-190:4328-34). Briefly, filter-paper discs impregnated with 10 μl of two-fold serial dilutions of the test compounds, and were placed onto LB solid medium Petri dishes. Then, aliquots (50 μl) of an E. coli DH5α culture in stationary phase were mixed with 3 ml of top agar (0.7% agar) and overlaid onto the plates. After overnight incubation at 37° C., the plates were examined for different degrees of inhibition. Inhibition degrees produced by the test compound are expressed as Minimum Inhibitory Concentrations (MICs), defined as the lowest concentration of a compound that inhibit visible growth of bacteria. Each test was performed in duplicate vs. the reference compound Doxycycline.

[2] = test system: SH-SY5Y cells; experiment: CellROX assay of intracellular reactive oxygen species induced by ASf; type: cell-based; details: 10 μM compound alone, 24 h
Protocol: In order to characterize the antioxidant properties of D9, its protective action on the AS-induced production of reactive oxygen species (ROS) in a cellular model was assessed. For this, SH-SY5Y cells were treated with fibrils of AS (ASf) (AS incubated 120 h at 37° C. and 600 rpm), and the reactive oxygen species produced were examined using the CellROX® Orange Reagent (Invitrogen), which undergoes oxidation by ROS to form a stable fluorescent compound.
In addition, cells were also treated with doxycycline 10 μM+7 μM ASf (ASf+Doxy) as a positive control, and 10 μM doxycycline alone (Doxy). All conditions were incubated 24 h at 37° C. and 5% CO2. […] Fluorescent images of randomly chosen fields were acquired with identical acquisition parameters using a Zeiss Axio Vert.A1 inverted fluorescence microscope.

[3] = target: D2 dopamine receptor (Homo sapiens, UniProt P14416); experiment: D2 receptor agonist assay, cAMP Nomad biosensor, U2OS_cAMPNmd_FP650_D2 cells; type: cell-based; details: 24 h, 10 serial 1:3 dilutions from 30 μM, triplicate
D2 dopamine receptor, sequence (P14416 whole entry): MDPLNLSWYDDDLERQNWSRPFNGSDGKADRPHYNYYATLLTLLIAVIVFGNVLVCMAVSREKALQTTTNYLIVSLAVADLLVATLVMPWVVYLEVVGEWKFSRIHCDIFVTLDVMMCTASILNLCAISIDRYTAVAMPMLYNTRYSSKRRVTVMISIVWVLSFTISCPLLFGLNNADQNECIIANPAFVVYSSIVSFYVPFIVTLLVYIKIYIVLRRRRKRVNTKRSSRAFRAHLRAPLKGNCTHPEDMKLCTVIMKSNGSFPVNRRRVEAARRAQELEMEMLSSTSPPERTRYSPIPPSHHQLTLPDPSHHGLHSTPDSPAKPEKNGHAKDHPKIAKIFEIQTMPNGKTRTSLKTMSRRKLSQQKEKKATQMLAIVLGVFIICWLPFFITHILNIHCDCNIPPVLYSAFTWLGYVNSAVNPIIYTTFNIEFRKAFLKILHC
Protocol: HEK_cAMPNmd_FP650_D1 and U2OS_cAMPNmd_FP650_D2 cells were seeded at a density of 30.000 and 20.000 cells/well, respectively, in 96-well plates. Cells were maintained in DMEM or DMEM-F12 medium supplemented with 10% FBS during 24 h at 37° C. in a humidified 5% CO2 atmosphere.
Cells were then incubated for 24 h.
To detect Nomad biosensor activation, the assay medium was removed and replaced by […] of DPBS with calcium and magnesium. […] In U2OS_cAMPNmd_FP650_D2 cells, images were acquired using the CellInsight CX7 HCS Platform, and the number of fluorescent vesicles per cell was quantified with the HCS Studio Cell Analysis Software.
The effect of the compounds in the regulation of D1 or D2 receptors' activation was analyzed measuring the CAMP signaling using the Nomad biosensor-based assay.
This same experiment was carried out in the U2OS_cAMPNmd_FP650_D2 cell line (FIG. 10). The effect of the compounds was analyzed quantifying the number of fluorescent vesicles in the cytoplasm of the cells using the HCS Studio Cell Analysis Software.

[4] = target: D1 dopamine receptor (Homo sapiens, UniProt P21728); experiment: D1 receptor agonist assay, cAMP Nomad biosensor, HEK_cAMPNmd_FP650_D1 cells; details: 24 h, 10 serial 1:3 dilutions from 30 μM, triplicate
D1 dopamine receptor, sequence (P21728 whole entry, the tested form may be a part): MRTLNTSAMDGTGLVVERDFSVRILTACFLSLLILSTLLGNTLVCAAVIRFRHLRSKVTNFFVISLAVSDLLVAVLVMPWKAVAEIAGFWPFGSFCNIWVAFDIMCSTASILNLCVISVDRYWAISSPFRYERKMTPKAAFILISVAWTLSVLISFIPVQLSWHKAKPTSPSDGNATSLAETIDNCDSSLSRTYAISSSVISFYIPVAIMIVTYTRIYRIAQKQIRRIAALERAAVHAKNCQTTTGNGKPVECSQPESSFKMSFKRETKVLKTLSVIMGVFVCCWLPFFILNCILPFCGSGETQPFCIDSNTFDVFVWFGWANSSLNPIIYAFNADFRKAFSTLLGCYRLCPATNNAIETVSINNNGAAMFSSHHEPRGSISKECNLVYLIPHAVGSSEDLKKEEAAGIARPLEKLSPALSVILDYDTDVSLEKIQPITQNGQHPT
Protocol: To detect Nomad biosensor activation, the assay medium was removed and replaced by 100 ml of DPBS with calcium and magnesium. […] In U2OS_cAMPNmd_FP650_D2 cells, images were acquired using the CellInsight CX7 HCS Platform, and the number of fluorescent vesicles per cell was quantified with the HCS Studio Cell Analysis Software.

[5] = disc diffusion, two-fold serial dilutions from 2 mg/ml, LB solid medium, overnight 37° C., read-out: MIC

MIC [1, 5] | RATE MIC Compound/Doxycycline [1] | SMILES | Intracellular ROS induced by compound alone [2] | MIC [1] | EC50, D2 receptor activation [3] | EC50, D1 receptor activation [4]
31.2 µg/mL (≈ 70.3 µM) | 1 | C[C@H]1c2cccc(O)c2C(=O)C2=C(O)[C@]3(O)C(=O)C(C(N)=O)=C(O)C(N(C)C)C3[C@@H](O)C21 (some centres unmarked) [Compound D1, Doxycycline Free Form, reference compound] |  |  |  | 
31.2 µg/mL (≈ 70.3 µM) |  | C[C@H]1c2cccc(O)c2C(=O)C2=C(O)[C@]3(O)C(=O)C(C(N)=O)=C(O)[C@@H](N(C)C)[C@@H]3[C@@H](O)[C@@H]21 [Doxycycline, reference compound] | neither the presence of D9 nor doxycycline induced intracellular ROS |  |  | 
1000 µg/mL (≈ 2240 µM) | 32 | C[C@H]1c2ccc([N+](=O)[O-])c(O)c2C(=O)C2=C(O)[C@]3(O)C(=O)C(C(N)=O)=C(O)CC3[C@@H](O)C21 (some centres unmarked) [Compound D4, 4-dedimethylamino-9-nitro doxycycline] |  |  |  | 
250 µg/mL (≈ 600 µM) | 8 | C[C@H]1c2ccc(N)c(O)c2C(=O)C2=C(O)[C@]3(O)C(=O)C(C(N)=O)=C(O)CC3[C@@H](O)C21 (some centres unmarked) [Compound D5, 9-amino-4-dedimethylamino doxycycline] |  |  | did not act as an agonist of the D2 receptor | did not act as an agonist of the D1 receptor

SMILES | MIC [1, 5] | RATE MIC Compound/Doxycycline [1] | Intracellular ROS induced by compound alone [2] | MIC [1] | EC50, D2 receptor activation [3] | EC50, D1 receptor activation [4]
C[C@H]1c2cccc(O)c2C(=O)C2=C(O)[C@]3(O)C(=O)C(C(N)=O)=C(O)CC3[C@@H](O)C21 (some centres unmarked) [Compound D3, 4-dedimethylaminodoxycycline] |  | 16 |  | 500 µg/mL (≈ 1250 µM) |  | 
C[C@H]1c2ccc(NC(=O)CCl)c(O)c2C(=O)C2=C(O)[C@]3(O)C(=O)C(C(N)=O)=C(O)CC3[C@@H](O)C21 (some centres unmarked) [Compound D6, 9-(2-chloroacetamido)-4-dedimethylamino doxycycline] |  | 64 |  | 2000 µg/mL (≈ 4060 µM) |  | 
